From patent US20180064738A1, “METHOD OF TREATING INFECTIONS USING SILOXANE DERIVATIVES” (priority 2014, published 2018)

Assays:
[1] = tested on: human head and neck cancer cell line (HTB41/-43); assay: Intratumoral injection of head and neck cancer tumors in nude mice; format: in vivo; conditions: tumors in the abdomen injected, over 10 days; K-21 at 5% by weight
Method: Nude mice were injected with human head and neck cancer cell line (HTB41/-43). […] The size of the sham injected tumors grew most rapidly over 10 days.

shaved skin of mice = assay: Topical irritation and DMBA skin tumor study in mice; conditions: Group II
Method: K-21 was dissolved in acetone to enhance its ability to wet the shaved skin on the backs of experimental mice. Mice in the positive control group were treated with a topical chemical carcinogenic agent, dimethybena(α)anthracene (DMBA), dissolved in acetone.
Thirty adult C57/BL6 mice were randomly divided into three groups of ten animals each to evaluate the topical irritation and potential anti-inflammatory properties of K-21. The hair on the back of all mice were shaved off with electric clippers.
Group 1 animals received topical application of K-21 (100 μg/100 μL) in acetone twice a week for two weeks (days 3, 6, 9, and 12) over the shaved area. These animals received no other treatment. Group II mice received a topical single dose of DMBA (100 μg/100 μL) in acetone over the shaved skin on the animals back on day 7. Group III animals received the same treatment as Group II mice on day 7 plus they were treated with topical K-21, twice a week before (days 3, 6) and one week after (days 9 and 12) a single DMBA application on day 7.
All animals were weighed daily, before and during the study to compare the weight gains of animals in all three groups. The behavior (eating, drinking, etc.) was monitored on a daily basis to determine if there was any gross skin irritation or initiation of tumors. […]

IL-1 = assay: Flow cytometry of skin cells for the inflammatory cytokine IL-1; format: in vivo, C57/BL6 mice; conditions: Group II, DMBA alone
Method: These animals received no other treatment.
Flow cytometry analyses: The skin and some associated soft tissues on the backs of all mice were excised. Representative portions of the skin and dermis were prepared for flow cytometry analysis by being divided into single cell suspensins using a 100 μm cell strainer followed by centrifugation (1500 rpm, 10 mm). Analysis of cells for detection of the inflammatory cytokine IL-1 was performed by fixing, permeabilizing, and staining of cells and running flow cyctopmetry using a FACS Calibur BD Flow Cytometer.

SMILES: N.N.[Cl][Pt][Cl] [Cisplatin]
- tumor growth [1]: grew the least

SMILES: Cc1c2ccccc2c(C)c2c1ccc1ccccc12 [DMBA, dimethybena(α)anthracene]
- tumor formation (shaved skin of mice; single topical dose of DMBA on day 7, sacrificed day 14): Tumors formed in all ten
- tumor diameter (shaved skin of mice; single topical dose of DMBA, day 14): about 0.5 cm
- IL-1 positive cells of the total number of cells (IL-1): 6%
